# In PubChem BioAssay (NCI):
#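 Values below derive from 48-hour exposures of cells grown in 96-well plates, with endpoints linearly interpolated between the two concentrations bracketing the appropriate inhibition level. Here, GI50 denotes the concentration required for 50% inhibition of growth. The concentration for full growth arrest is given as TGI.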
# How the values were obtained:
# Assay in all cases: inhibition of tumour cell growth, NCI panel, 48 h
# SN12C renal = system: SN12C renal
# SNB-19 CNS = system: SNB-19 CNS
# RPMI-8226 leukemia = system: RPMI-8226 leukemia
# T-47D breast = system: T-47D breast
# K-562 leukemia = system: K-562 leukemia
# ACHN renal = system: ACHN renal
# SF-295 CNS = system: SF-295 CNS
# OVCAR-3 ovarian = system: OVCAR-3 ovarian
# MDA-MB-231 breast = system: MDA-MB-231 breast
# NCI-H226 lung = system: NCI-H226 lung
SMILES,GI50 (SN12C renal),TGI (SN12C renal),GI50 (SNB-19 CNS),TGI (SNB-19 CNS),GI50 (RPMI-8226 leukemia),TGI (RPMI-8226 leukemia),GI50 (T-47D breast),TGI (T-47D breast),GI50 (K-562 leukemia),TGI (K-562 leukemia),GI50 (ACHN renal),TGI (ACHN renal),GI50 (SF-295 CNS),TGI (SF-295 CNS),GI50 (OVCAR-3 ovarian),TGI (OVCAR-3 ovarian),GI50 (MDA-MB-231 breast),TGI (MDA-MB-231 breast),TGI (NCI-H226 lung) [µM]
O=C1NN(C2=NNC3(C(=O)N2)c2ccccc2-c2ccccc23)C(c2ccccc2)=N/C1=C/c1ccc(O)cc1,74.2 µg/mL,> 150 µg/mL,94.9 µg/mL,> 150 µg/mL,70.6 µg/mL,> 150 µg/mL,27 µg/mL,> 150 µg/mL,35.8 µg/mL,> 150 µg/mL,41.7 µg/mL,> 150 µg/mL,56.9 µg/mL,> 150 µg/mL,55.1 µg/mL,> 150 µg/mL,26.2 µg/mL,71.7 µg/mL,
O=C(N/N=C\c1cccc(O)c1)c1ccncc1,,> 100 µM,,> 100 µM,,,,> 100 µM,,> 100 µM,,> 100 µM,,> 100 µM,,> 100 µM,,> 100 µM,
Cc1nc2ccccc2n1C(=O)c1c(F)c(F)c(F)c(F)c1F,,30.6 µM,,> 100 µM,,38.3 µM,,> 100 µM,,> 100 µM,,60.7 µM,,> 100 µM,,71.6 µM,,32 µM,65.5
C=CC1(C)CCC2=C(CCC3C(C)(C(=O)OC)CCCC23C)C1=O (stereo not drawn),,33 µM,,> 100 µM,,55.9 µM,,,,> 100 µM,,31.9 µM,,72.5 µM,,35.3 µM,,,40.2
Cn1c(=O)c2[nH]c(CCCCC(=O)O)nc2n(C)c1=O,,> 100 µM,,> 100 µM,,,,> 100 µM,,,,> 100 µM,,> 100 µM,,> 100 µM,,> 100 µM,> 100
Clc1ccccc1/C=C/c1cscn1,,> 100 µM,,> 100 µM,,> 100 µM,,,,> 100 µM,,> 100 µM,,,,> 100 µM,,,
CCOC(=O)CN=C1NNS(=O)(=O)c2ccccc21,,> 100 µM,,> 100 µM,,> 100 µM,,> 100 µM,,> 100 µM,,> 100 µM,,> 100 µM,,> 100 µM,,> 100 µM,> 100
C=C(C)C(=O)OC1CCC2(C)C(CCC3C2CCC2(C)C(c4ccc(=O)oc4)CC4OC432)C1 (stereo not drawn),,24.1 µM,,72.5 µM,,20.1 µM,,,,32.9 µM,,,,23.1 µM,,15.1 µM,,,48.1
CCOC(=O)C(O)(NC(=O)c1ccc(F)cc1)C(F)(F)F (stereo not drawn),,> 100 µM,,> 100 µM,,> 100 µM,,> 100 µM,,> 100 µM,,> 100 µM,,> 100 µM,,> 100 µM,,> 100 µM,> 100
Cc1cc(O)c(C(C)(C)C)cc1Sc1cc(C(C)(C)C)c(O)cc1C,2.91 µM,> 100 µM,3.72 µM,13 µM,2.97 µM,15.8 µM,2.09 µM,13.4 µM,1.95 µM,5.4 µM,2.89 µM,10 µM,2.32 µM,5.61 µM,2.23 µM,5.45 µM,2.16 µM,5.06 µM,
